Article PMC12308784, “Organometallic Half-Sandwich Complexes of 1,10-Phenanthroline Derivatives with Improved Solubility, Albumin-Binding, and Nanoformulation Potential Targeting Drug Resistance in Cancer” (Inorganic Chemistry, 2025)
Several values for one entry are separate records, joined by “and”; a condition that tells them apart may be missing. Identical values can stand only once. Like-named read-outs stand apart in the source and are kept apart here.

Legend:
[1] = H2O/Cl– co-ligand exchange constant by UV–vis spectrophotometry; type: physicochemical; conditions: pH = 6.0, 20 mM phosphate buffer; t = 25 °C
Experimental: The coordinated chlorido ligand can undergo spontaneous partial exchange upon dissolution, making it essential to determine the equilibrium constant for the [M(η^6-arene/η^5-arenyl)(ligand)-Cl]^+ + H2O ⇌ [M(η^6-arene/η^5-arenyl)(ligand)(H2O)]^2+ + Cl^– process (or for the reverse direction) to evaluate the ratio of chlorido to aqua complexes. The logK′ (H2O/Cl^–) constants were determined by UV–vis spectrophotometry (Figure ) due to the changes in the charge transfer bands. […] Importantly, this process is slow for the RuCym complexes, which requires a longer time to reach equilibrium, necessitating careful equilibration in experimental setups before further analysis. Therefore, in the case of the RuCym complexes, individual samples were prepared and their spectra were measured after 1 h, while the spectra for the RhCp* complexes were obtained by direct titration with the KCl solution. The appearance of isosbestic points in the spectra confirms the clear equilibrium between chlorido- and aqua complexes.
4 (a) Changes in the UV–vis spectra of complex RuCymBP due to the H2O/Cl^– coligand exchange process, (b) with absorbance variation at 357 nm plotted as a function of the chloride concentration (○) with the fitted curve (dashed line). Individual samples were prepared and the spectra were recorded after 1 h waiting time. {c complex = 28 μM; c Cl– = 56 μM – 0.29 M; t = 25 °C; pH = 6.0 (20 mM phosphate buffer)}.
An Agilent Cary 8454 diode array spectrophotometer was utilized to obtain UV–vis spectra in the wavelength range 190–1100 nm; the path length was 1 cm. The concentrations of the complexes were between 20 and 100 μM. The actual pH of the samples were measured with an Orion 710A pH-meter equipped with a Metrohm combined electrode (type 6.0234.100) and the pH titrations were performed by a KOH solution using a Metrohm 665 Dosimat buret at 25.0 °C. […] The computer program HypSpec was used to calculate the equilibrium constants.

MES-SA/B1-mOrange = test: fluorescent triple coculture cytotoxicity assay; type: cell-based, human; conditions: for SR (MES-SA/B1): selectivity ratio versus parental MES-SA
From the text: (§1) Cytotoxicity of the compounds were further tested also in an in vitro MDR model system, consisting of an MES-SA uterine sarcoma cell line, and its P-gp (ABCB1) overexpressing variants MES-SA/B1, that was genetically engineered to express P-gp, and MES-SA/Dx5, which acquired a P-gp-mediated MDR phenotype due to selection in doxorubicin. , The expression of different fluorescent proteins in each line (mCherry, mOrange, or eGFP) allowed coculturing of these three cell lines, providing more relevant data compared to monocultures, as the interaction between parental and resistant phenotypes is reflected in cytotoxicity.
(§2) Cytotoxicity of nanoformulated [RhCp*(BP)-Cl]-Cl with cross-linked HSA and HTP carriers was tested against the previously introduced triple coculture of fluorescent MES-SA cells with a slight difference. Namely, the media containing the dissolved products were removed from the wells, and fresh media was added prior to the measurement as the presence of cross-linked HSA and HTP formulations interfered with the fluorescence of the cells.
(§3) MDA-MB-231 breast adenocarcinoma and MCF-7 and T-47D invasive breast carcinomas were purchased from the Developmental Therapeutic Program of the National Cancer Institute (NIH, USA), and they were cultured in RPMI medium (Thermo Fisher). MES–SA and MES–SA/Dx5 uterine sarcoma cell lines were purchased from American Type Culture Collection and were kept in DMEM (Thermo Fisher). MES–SA/B1 was created by the transfection of the human MDR1 gene in MES–SA, and MES–SA mCherry, MES–SA/B1 mOrange, and MES–SA/Dx5 eGFP were engineered to stably express the respective fluorescent proteins, as described previously. Culture media were supplemented with 10% fetal bovine serum, 2 mM L-glutamine, 100 units/mL penicillin, and 100 μg/mL streptomycin (Thermo Fisher). Cells were kept at 37 °C under 5% CO2 and were negative for mycoplasma infection.
(§4) Cytotoxicity of the nonfluorescent cancer cells (MDA-MB-231, MCF-7, T-47D) were assessed with PrestoBlue cell viability reagent (Thermo Fisher). Briefly, 2500 cells/well were seeded on 384-well plates, and then the next day drugs were added. After 72 h incubation, PrestoBlue was added in a 10% final concentration, and after an hour of additional incubation, plates were measured with a PerkinElmer EnSpire plate reader at 555 nm/585 nm excitation/emission wavelengths. […] Drugs were added the following day, and the intensity of the fluorescent proteins were measured after 144 h incubation at the respective fluorescent channels (excitation/emission: eGFP: 485 nm/510 nm; mCherry: 585 nm/610 nm; mOrange: 545 nm/567 nm). pIC50 values were calculated by a custom program written by Judit Sessler in C#. IC50 values and standard deviation were calculated from average pIC50 values from at least 3 independent measurements. Since the IC50 values were obtained through nonlinear regression fitting of the viability vs. log(concentration) data, the resulting confidence intervals are inherently asymmetric (see pIC50 values and their corresponding SD in Tables S5 and S6).

MES-SA mCherry = test: fluorescent triple coculture cytotoxicity assay; type: cell-based, human
From the text: as §1, §2, §3, §4

MES-SA/Dx5-eGFP = test: fluorescent triple coculture cytotoxicity assay; type: cell-based, human; conditions: for SR (MES-SA/Dx5): selectivity ratio versus parental MES-SA
From the text: as §1, §2, §3, §4

[2] = MES-SA/B1-mOrange, coculture, 384-well plate, 144 h, read-out: IC50
[3] = Mes-Sa/B1 mOrange, 384-well plate, Table S6
[4] = MES-SA mCherry, coculture, 384-well plate, 144 h, read-out: IC50
[5] = Mes-Sa mCherry, 384-well plate, Table S6
[6] = MES-SA/Dx5-eGFP, coculture, 384-well plate, 144 h, read-out: IC50
[7] = Mes-Sa/Dx5 eGFP, 384-well plate, Table S6
[8] = Homo sapiens, MES-SA/B1-mOrange, coculture, 384-well plate, 144 h, read-out: IC50
[9] = Homo sapiens, Mes-Sa/B1 mOrange, 384-well plate, Table S6, read-out: pIC50 (mean) (converted)
[10] = Homo sapiens, MES-SA, 144 h, MES-SA mCherry, coculture, 384-well plate, 144 h, read-out: IC50
[11] = Homo sapiens, MES-SA, Mes-Sa mCherry, 384-well plate, Table S6, read-out: pIC50 (mean) (converted)
[12] = Homo sapiens, MES-SA/Dx5-eGFP, coculture, 384-well plate, 144 h, read-out: IC50
[13] = Homo sapiens, Mes-Sa/Dx5 eGFP, 384-well plate, Table S6, read-out: pIC50 (mean) (converted)

Compound	logK′ (H2O/Cl–) [1]	IC50 (MES-SA/B1-mOrange; [2]) [µM]	pIC50 (mean) (MES-SA/B1-mOrange; [3])	SR (MES-SA/B1) (MES-SA/B1-mOrange; 384-well plate)	IC50 (MES-SA mCherry; [4]) [µM]	pIC50 (mean) (MES-SA mCherry; [5])	IC50 (MES-SA/Dx5-eGFP; [6]) [µM]	pIC50 (mean) (MES-SA/Dx5-eGFP; [7])	SR (MES-SA/Dx5) (MES-SA/Dx5-eGFP; 384-well plate)	IC50 (MES-SA/B1-mOrange; [8]) [µM]	IC50 (MES-SA/B1-mOrange; [9]) [µM]	IC50 (MES-SA mCherry; [10]) [µM]	IC50 (MES-SA mCherry; [11]) [µM]	IC50 (MES-SA/Dx5-eGFP; [12]) [µM]	IC50 (MES-SA/Dx5-eGFP; [13]) [µM]	further results
Cc1ccc(C(C)C)cc1.[Cl-].[Cl-].[Ru+2].c1ccc(-c2ccnc3c2ccc2c(-c4ccccc4)ccnc23)cc1 [RuCymBP, [Ru(II)(η^6-p-cymene)(bathophenanthroline)Cl]Cl]	2.31 ± 0.13	55	4.26	0.01	0.53	6.28	41	4.39	0.01							
[Rh(III)(η^5-C5Me5)(bathophenanthroline)Cl]Cl [RhCp*BP]	2.98 ± 0.01	1.37	5.86	1.1		5.81	0.23	6.63	6.7							IC50 (MES-SA/B1-mOrange; MES-SA/B1-mOrange, coculture, 96-well plate, media replaced before measurement, read-out: IC50): 2.43 µM; pIC50 (mean) (MES-SA/B1-mOrange; Mes-Sa/B1 mOrange, 96-well plate, Table S6): 5.61; SR (MES-SA/B1) (MES-SA/B1-mOrange; 96-well plate): 1.2; IC50 (MES-SA mCherry; MES-SA mCherry, coculture, 96-well plate, media replaced before measurement, read-out: IC50): 2.9 µM; IC50 (MES-SA mCherry; MES-SA mCherry, coculture, 384-well plate, 144 h, listed as [RhCp*(BP)Cl]Cl, read-out: IC50): 1.56 µM; pIC50 (mean) (MES-SA mCherry; Mes-Sa mCherry, 96-well plate, Table S6): 5.54; IC50 (MES-SA/Dx5-eGFP; MES-SA/Dx5-eGFP, coculture, 96-well plate, media replaced before measurement, read-out: IC50): 1.77 µM; pIC50 (mean) (MES-SA/Dx5-eGFP; Mes-Sa/Dx5 eGFP, 96-well plate, Table S6): 5.75; SR (MES-SA/Dx5) (MES-SA/Dx5-eGFP; 96-well plate): 1.6
Clc1ccnc2c1ccc1c(Cl)ccnc12 [DCP, 4,7-dichloro-1,10-phenanthroline]				0.6	3.05				6.3	4.9	4.9	3.1	3.02	0.48	0.49	
Cc1ccc(C(C)C)cc1.Clc1ccnc2c1ccc1c(Cl)ccnc12.[Cl-].[Cl-].[Ru+2] [RuCymDCP, [Ru(II)(η^6-p-cymene)(4,7-dichloro-1,10-phenanthroline)Cl]Cl]	2.31 ± 0.03	> 100			65.6	4.18	> 100									
c1ccc(-c2ccnc3c2ccc2c(-c4ccccc4)ccnc23)cc1 [BP, 4,7-diphenyl-1,10-phenanthroline]				3.4					54.7	0.14	0.138	0.47	0.468	0.01	0.00851	
Cc1c(C)c(C)[c-](C)c1C.Clc1ccnc2c1ccc1c(Cl)ccnc12.[Cl-].[Cl-].[Rh+3] [RhCp*DCP, [Rh(III)(η^5-C5Me5)(4,7-dichloro-1,10-phenanthroline)Cl]Cl]	2.85 ± 0.01 ^b	6.38	5.20	0.7		5.38	0.75	6.12	5.6							IC50 (MES-SA mCherry; MES-SA mCherry, coculture, 384-well plate, 144 h, listed as [RhCp*(DCP)Cl]Cl, read-out: IC50): 4.2 µM and 4.22 µM
